From paper PMC10119423, “From PERK to RIPK1: Design, synthesis and evaluation of novel potent and selective necroptosis inhibitors” (Frontiers in Chemistry, 2023)
Where two headings read alike, the source gives them in different places.

Key:
300 kinases = system: 300 kinases; design: method as in Axten et al., 2013; settings: 10 µM, out of 300 kinases; ref Axten et al., 2013; cited from earlier work
RIPK1 = molecular target: T1, RIPK1 (Mus musculus, UniProt Q60855); assay: RIPK1 autophosphorylation (pS166) by Western blot in MEFs stimulated with hTNF + TAK1i + zVAD.fmk; type: cell-based; settings: immortalised MEFs, 30 min pretreatment with zVAD.fmk 50 μM, TAK1i 1 μM and compound, hTNF 20 ng/ml for 2.5 h, read-out: RIPK1 inhibition (IC50 estimated from a Western blot)
T1 construct: endogenous in cells; host or cells: immortalized mouse embryonic fibroblasts (MEFs, C57Bl6/J)
T1 sequence (Q60855 1-656): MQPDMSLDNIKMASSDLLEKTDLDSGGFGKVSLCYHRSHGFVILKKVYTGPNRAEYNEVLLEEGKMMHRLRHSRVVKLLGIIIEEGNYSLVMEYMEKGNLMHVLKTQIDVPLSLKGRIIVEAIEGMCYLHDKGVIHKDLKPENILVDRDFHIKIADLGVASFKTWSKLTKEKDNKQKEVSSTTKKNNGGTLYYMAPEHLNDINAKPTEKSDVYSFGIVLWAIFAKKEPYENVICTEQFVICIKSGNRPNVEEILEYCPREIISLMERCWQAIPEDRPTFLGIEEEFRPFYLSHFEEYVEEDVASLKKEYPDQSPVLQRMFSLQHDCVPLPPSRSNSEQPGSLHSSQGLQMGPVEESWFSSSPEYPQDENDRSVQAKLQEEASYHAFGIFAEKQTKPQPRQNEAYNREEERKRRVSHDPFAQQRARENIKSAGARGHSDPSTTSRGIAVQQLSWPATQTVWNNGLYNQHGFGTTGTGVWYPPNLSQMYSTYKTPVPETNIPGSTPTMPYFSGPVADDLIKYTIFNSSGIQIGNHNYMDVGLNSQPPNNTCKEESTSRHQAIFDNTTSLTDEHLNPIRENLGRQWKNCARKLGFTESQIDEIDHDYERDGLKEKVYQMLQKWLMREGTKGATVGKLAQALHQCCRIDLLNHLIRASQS
Protocol: (§1) MEFs were seeded in 6-well plates at a density of 300.000 cells/well in 2 mL. The next day, the cells were suspended in 1 mL of medium and pre-treated for 30 min with the indicated compounds at 1/5 dilutions series for PERK ranging from 5 to 0.04 µM and 1 μg/mL of Tm followed by 4 h treatment with 20 ng/mL of hTNF. For RIPK1, the cells were pre-treated at 1/10 dilutions series ranging from 10 to 0.01 nM, 50 µM zVAD.fmk and 1 µM TAKi before stimulation with 20 ng/mL of hTNF for 2.5 h. Then, the cells were washed two times with 1 mL of ice-cold PBS before lysis in 0.2 mL of Laemmli buffer 1x (10% (w/v) SDS, 50% glycerol, 0.5% bromophenol blue, 250 mM Tris–HCl pH 6.8) and 250 mM of dithiothreitol (DTT). The cell lysate was then collected and boiled at 95 °C for 10min and stored at −20°C. Proteins expression was later monitored by immunoblotting.
Activation of PERK was induced by stimulation of the cells with Tunicamycin, as previsouly reported ([Bull and Thiede, 2012]). More precisely, the immortalised MEFs were pre-incubated for 30 min with the analogues 18–34 at different concentrations (0.04, 0.2, 1, and 5 µM) prior to 4 h stimulation with Tunicamycin (1 μg/mL). […] Their activities were evaluated by comparing the intensity of the signal to unstimulated MEFs (considered as zero phosphorylation) and Tunicamycin stimulated cells (considered as 100% PERK phosphorylation). The 12 compounds (18–20, 22–29 and 34) that had lost their inhibitory capacity on PERK were then tested for their ability to inhibit RIPK1 as shown in Figures 6A–H. Activation and autophosphorylation of RIPK1 was induced by stimulating the cells with TNF in the presence of TAK1 inhibitor and of the pan-caspases inhibitor zVAD.fmk, a well established necroptotic trigger ([Vanlangenakker et al., 2011]). The MEFs were pre-incubated for 30 min with the different compounds (0.01 nM–1000 nM) and then stimulated with human TNF (20 ng/mL) for 2.5 h. Similar to the PERK assessment, IC50 values for RIPK1 inhibition were estimated as a range of concentrations, and are reported in Table 1. These experiments provide an estimation of the specificity of our analogues against PERK and RIPK1 in comparison to the benchmark GSK’157 already reported as a potent PERK and RIPK1 inhibitor.

immortalized MEFs = assay: RIPK1 kinase-dependent necroptosis (hTNF + zVAD.fmk) in MEFs, Sytox Green; type: cell-based, mouse; settings: for IC50: Mus musculus; for necroptosis inhibition (in words): mouse cells (MEFs), RIPK1-dependent necroptosis;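 for all read-outs here: cell death taken as background-corrected Sytox Green fluorescence relative to the maximal signal of cells fully permeabilized with 0.1% Triton X-100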
Protocol: In brief, the cells were seeded in duplicate at 10,000 cells per well in a 96-well adherent plate and incubated overnight at 37°C with 5% CO2. […] All the compound stock solutions were prepared in DMSO at 200 µM concentration. After stimulating the cells with human TNF at 20 ng/mL the plate was transferred to the incubator. […] The cell death was calculated by subtracting the background fluorescence from the induced Sytox Green fluorescence and by dividing the obtained result by the maximal fluorescence (minus the background fluorescence) obtained by permeabilization of the cells by using Triton X-100 at a final concentration of 0.1%. Curves were plotted in GraphPad 9 for the IC50 calculation.
Consequently, the compounds were evaluated for their potential protection of RIPK1-mediated necroptosis following human TNF stimulation.

MEFs = assay: RIPK1 kinase-dependent apoptosis (hTNF + TAK1i) in MEFs, Sytox Green; type: cell-based; settings: Mus musculus, TAK1i + hTNF (100 pg/mL)
From the text: In MEFs, TNF together with the pan caspases inhibitor zVAD.fmk induces RIPK1-dependent necroptosis while TNF together with TAK1 inhibitor induces RIPK1 kinase-dependent apoptosis. We also included the conditions selected for the Western blot experiments, where necroptosis was induced by the combination of hTNF, zVAD.fmk and TAK1 inhibitor.

HT-29 = assay: Necroptosis (hTNF + TAK1i + zVAD.fmk) in HT-29 cells, Sytox Green; settings: Homo sapiens, HT-29, read-out: Necroptosis hTNF + TAK1i + zVAD.fmk HT-29 IC50
Protocol: In brief, the cells were seeded in duplicate at 10,000 cells per well in a 96-well adherent plate and incubated overnight at 37°C with 5% CO2. […] All the compound stock solutions were prepared in DMSO at 200 µM concentration. After stimulating the cells with human TNF at 20 ng/mL the plate was transferred to the incubator. Sytox Green intensity was measured in function of time at 0, 14 and 24 h with an excitation filter of 485 nm, an emission filter of 520 nm. The cell death was calculated by subtracting the background fluorescence from the induced Sytox Green fluorescence and by dividing the obtained result by the maximal fluorescence (minus the background fluorescence) obtained by permeabilization of the cells by using Triton X-100 at a final concentration of 0.1%. Curves were plotted in GraphPad 9 for the IC50 calculation.
To induce necroptosis in human colorectal adenocarcinoma cell line (HT-29) together with hTNF and the pan caspases inhibitor zVAD.fmk, TAK1 inhibitor is also needed.

PERK = molecular target: T2, PERK (Mus musculus, UniProt Q9Z2B5); assay: PERK autophosphorylation by Western blot in tunicamycin-stimulated immortalized MEFs; type: cell-based; settings: immortalized MEFs, 30 min pretreatment, tunicamycin 1 μg/ml for 4 h; PERK autophosphorylation; read-out: PERK inhibition (IC50 estimated from a Western blot)
T2 construct: Immortalized MEFs were pretreated for 30 min with increasing concentrations of GSK’157 and the indicated compounds and stimulated with tunicamycin; endogenous in cells; host or cells: immortalized mouse embryonic fibroblasts (MEFs, C57Bl6/J)
T2 sequence (Q9Z2B5 29-1114): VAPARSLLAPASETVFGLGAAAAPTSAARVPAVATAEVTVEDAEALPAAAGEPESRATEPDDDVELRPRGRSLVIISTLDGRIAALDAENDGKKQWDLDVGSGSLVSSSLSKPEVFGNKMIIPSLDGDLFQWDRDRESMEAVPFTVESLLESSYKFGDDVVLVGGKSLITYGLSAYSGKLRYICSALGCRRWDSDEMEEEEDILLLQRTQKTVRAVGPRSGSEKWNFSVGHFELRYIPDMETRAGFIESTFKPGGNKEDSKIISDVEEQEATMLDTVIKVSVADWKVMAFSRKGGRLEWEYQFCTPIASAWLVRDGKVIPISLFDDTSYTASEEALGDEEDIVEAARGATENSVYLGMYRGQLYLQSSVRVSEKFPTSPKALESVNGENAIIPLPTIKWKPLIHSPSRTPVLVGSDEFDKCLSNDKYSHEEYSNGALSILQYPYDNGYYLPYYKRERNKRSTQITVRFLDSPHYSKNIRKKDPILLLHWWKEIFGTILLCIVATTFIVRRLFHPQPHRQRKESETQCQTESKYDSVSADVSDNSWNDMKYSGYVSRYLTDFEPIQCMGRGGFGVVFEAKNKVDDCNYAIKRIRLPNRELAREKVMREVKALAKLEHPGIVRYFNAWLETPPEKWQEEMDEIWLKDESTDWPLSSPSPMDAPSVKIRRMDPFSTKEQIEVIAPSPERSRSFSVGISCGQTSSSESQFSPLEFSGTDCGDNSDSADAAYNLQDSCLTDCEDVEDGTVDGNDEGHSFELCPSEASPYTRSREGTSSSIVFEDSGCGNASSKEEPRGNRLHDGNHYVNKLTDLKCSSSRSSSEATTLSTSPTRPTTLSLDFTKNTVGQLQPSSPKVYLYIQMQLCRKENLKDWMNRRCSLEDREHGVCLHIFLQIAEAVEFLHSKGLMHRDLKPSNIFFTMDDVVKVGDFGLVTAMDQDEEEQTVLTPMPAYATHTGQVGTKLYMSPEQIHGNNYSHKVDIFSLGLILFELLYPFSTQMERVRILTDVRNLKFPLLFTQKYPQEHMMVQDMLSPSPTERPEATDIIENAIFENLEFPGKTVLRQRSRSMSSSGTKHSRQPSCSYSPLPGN
Protocol: as §1
Their activities were evaluated by comparing the intensity of the signal to unstimulated MEFs (considered as zero phosphorylation) and Tunicamycin stimulated cells (considered as 100% PERK phosphorylation). […] The MEFs were pre-incubated for 30 min with the different compounds (0.01 nM–1000 nM) and then stimulated with human TNF (20 ng/mL) for 2.5 h. Similar to the PERK assessment, IC50 values for RIPK1 inhibition were estimated as a range of concentrations, and are reported in Table 1.

panel of 294 kinases = system: panel of 294 kinases; design: method as in Axten et al., 2012; settings: 10 µM, ref Axten et al., 2012; cited from earlier work
[1] = 24 h, MEFs, hTNF + zVAD.fmk (20 ng/mL), Table 2, read-out: Necroptosis hTNF + zVAD.fmk MEFs IC50
[2] = 24 h, immortalized MEFs, zVAD-fmk 50 μM + hTNF 20 ng/ml, Sytox Green at 24 h, Table 1 series, read-out: IC50 necroptosis
[3] = MEFs, hTNF + zVAD.fmk, read-out: IC50 necroptosis inhibition

| SMILES | IC50 (RIPK1) | IC50 (PERK) | IC50 (immortalized MEFs; [2]) | further results |
| --- | --- | --- | --- | --- |
| Cc1cccc(CC(=O)N2CCc3c2ccc(-c2cn(C)c4ncnc(N)c24)c3F)n1 [Compound 10, reference compound] | 0.1 to 1 nM | – | – | number of kinases inhibited with more than 80% (300 kinases): 17; IC50 (immortalized MEFs; 24 h, read-out: IC50 necroptosis): 0.42 nM; IC50 (immortalized MEFs; [1]): 0.7 nM; IC50 (MEFs): 3.7 nM; IC50 (HT-29): 3.1 nM |
| Cn1cc(-c2ccc3c(c2F)CCN3C(=O)Cc2ccc(F)cn2)c2c(N)ncnc21 [Compound 18] | ≥ 10 nM | > 5000 nM | 13.5 nM | – |
| Cn1cc(-c2ccc3c(c2F)CCN3C(=O)Cc2ccc(Cl)cn2)c2c(N)ncnc21 [Compound 19] | 1 to 10 nM | > 5000 nM | 2.5 nM | – |
| Cn1cc(-c2ccc3c(c2F)CCN3C(=O)Cc2ccc(Br)cn2)c2c(N)ncnc21 [Compound 20] | 1 to 10 nM | > 5000 nM | 3.2 nM | – |
| Cc1ccc(CC(=O)N2CCc3c2ccc(-c2cn(C)c4ncnc(N)c24)c3F)nc1 [Compound 21] | ≥ 10 nM | 1000 to 5000 nM | 37 nM | – |
| COc1ccc(CC(=O)N2CCc3c2ccc(-c2cn(C)c4ncnc(N)c24)c3F)nc1 [Compound 23] | ≥ 10 nM | ≥ 5000 nM | 39 nM | – |
| Cn1cc(-c2ccc3c(c2F)CCN3C(=O)Cc2ccc(C3CC3)cn2)c2c(N)ncnc21 [Compound 24] | ≥ 10 nM | > 5000 nM | 33.5 nM | – |
| Cn1cc(-c2ccc3c(c2F)CCN3C(=O)Cc2ccc(C(C)(C)C)cn2)c2c(N)ncnc21 [Compound 25] | ≥ 10 nM | > 5000 nM | 40 nM | – |
| Cn1cc(-c2ccc3c(c2F)CCN3C(=O)Cc2ccc(O)cn2)c2c(N)ncnc21 [Compound 26] | ≥ 10 nM | ≥ 5000 nM | 2530 nM | IC50 (immortalized MEFs; [3]): > 2000 nM |
| Cn1cc(-c2ccc3c(c2F)CCN3C(=O)Cc2ccncc2)c2c(N)ncnc21 [Compound 27] | ≥ 10 nM | > 5000 nM | 3020 nM | IC50 (immortalized MEFs; [3]): > 2000 nM |
| Cn1cc(-c2ccc3c(c2F)CCN3C(=O)Cc2ccc(Cc3ccccc3)cn2)c2c(N)ncnc21 [Compound 28] | ≥ 10 nM | ≥ 5000 nM | 62 nM | – |
| Cn1cc(-c2ccc3c(c2F)CCN3C(=O)Cc2ccc(-c3ccccc3)cn2)c2c(N)ncnc21 [Compound 29] | ≥ 10 nM | > 5000 nM | > 10000 nM | – |
| Cn1cc(-c2ccc3c(c2F)CCN3C(=O)Cc2ccc(F)cc2)c2c(N)ncnc21 [Compound 30] | 0.1 to 1 nM | 1000 to 5000 nM | 0.01 nM | fold higher potency than GSK’157 (necroptosis IC50) (immortalized MEFs; MEFs, hTNF + zVAD.fmk): 40 fold |
| Cn1cc(-c2ccc3c(c2F)CCN3C(=O)Cc2ccc(Cl)cc2)c2c(N)ncnc21 [Compound 31] | 0.1 to 1 nM | 1000 to 5000 nM | 0.4 nM | – |
| Cn1cc(-c2ccc3c(c2F)CCN3C(=O)Cc2ccc(Br)cc2)c2c(N)ncnc21 [Compound 32] | 1 to 10 nM | 1000 to 5000 nM | 0.3 nM | – |
| Cc1ccc(CC(=O)N2CCc3c2ccc(-c2cn(C)c4ncnc(N)c24)c3F)cc1 [Compound 33] | ≥ 10 nM | 1000 to 5000 nM | > 10000 nM | necroptosis inhibition (in words) (immortalized MEFs): complete loss of necroptosis inhibition |
| Cn1cc(-c2ccc3c(c2F)CCN3C(=O)Cc2ccc(C(F)(F)F)cc2)c2c(N)ncnc21 [Compound 34] | 1 to 10 nM | ≥ 5000 nM | 1.1 nM | – |
| Cn1cc(-c2ccc3c(c2)CCN3C(=O)Cc2cccc(C(F)(F)F)c2)c2c(N)ncnc21 [GSK’414, 7-methyl-5-(1-{[3-(trifluoromethyl)phenyl]acetyl}-2,3-dihydro-1H-indol-5-yl)-7H-pyrrolo[2,3-d]pyrimidin-4-amine] | – | – | – | number of kinases inhibited with more than 85% (panel of 294 kinases): 20 |
| CN1C(=O)[C@@H](NC(=O)c2n[nH]c(Cc3ccccc3)n2)COc2ccccc21 [GSK’772, reference compound] | – | – | – | IC50 (immortalized MEFs; [1]): > 100 nM; necroptosis inhibition (in words) (immortalized MEFs): no activity; IC50 (MEFs): > 100 nM; IC50 (HT-29): 0.2 nM |
